Measurements: patent US4980377A, “1-(aminophenyl)-2-aminopropanone derivatives” (Laboratoire L. Lafon, priority 1984, dated 1990)
Entries after “also recorded” stand apart in the source; their conditions may differ. Counter-ions that a name gives are not always drawn.

Tests used:
mice [1] = assay: Motility reduced by hypoxic aggression; assay type: in vivo, mouse; conditions: i.p.
Experimental: Half an hour after they have received CRL 41 153, the mice (10 per dose, 20 control animals) are subjected to acute hypobaric anoxia [pressure reduction of 600 mm Hg (i.e. about 8×10^4 Pa) in 90 seconds; release of vacuum in 45 seconds] and are then placed in an actimeter, where their motility is recorded for 10 minutes.

CNS = assay: Neuropsychopharmacological profile as a whole; assay type: in vivo, mice and rats
Experimental: (§1) In the neuropsychopharmacological study which follows, a solution of CRL 41 153 in distilled water (pH 1.5) was administered intraperitoneally in a volume of 20 ml/kg to male mice and 5 ml/kg to male rats.

[2] = pH of solutions in distilled water; assay type: physicochemical
Experimental: The neuropsychopharmacological study was undertaken according to the procedures described above for CRL 41 153, CRL 41 213 being adminstered intraperitoneally, in solution in distilled water, in a volume of 20 ml/kg to male mice and a volume of 5 ml/kg to male rats, and the pH of the injected solution varying with the concentration of CRL 41 213 according to the data given in Table II below.

mice [3] = assay: Overall behavior and reactivities in mice; assay type: in vivo, mouse; conditions: dose not stated
Experimental: as §1
(§2) Groups of three animals are observed before and then 0.25 hour, 0.50 hour, 1 hour, 2 hours, 3 hours and 24 hours after the administration of CRL 41 153.

mice [4] = assay: Motility reduced by habituation to the enclosure; assay type: in vivo, mouse; conditions: i.p.
Experimental: After they have stayed In the actimeters for 18 hours, (he mice (6 per dose, 12 control animals) receive CRL 41 153. They are immediately returned to their respective enclosures and, half an hour later, their motility is recorded for 30 minutes.

mice [5] = assay: Interaction with reserpine; assay type: in vivo, mouse; conditions: i.p.
Experimental: Four hours after the intraperitoneal injection of 2.5 mg/kg of reserpine, groups of 6 mice receive CRL 41 153.

rats [6] = assay: Interaction with apomorphine in rats; assay type: in vivo, rat; conditions: i.p.
Experimental: CRL 41 153 is administered to groups of 6 rats 0.5 hour before the subcutaneous injection of 0.5 mg/kg of apomorphine.

mice [7] = assay: Interaction with apomorphine in mice; assay type: in vivo, mouse; conditions: i.p.
Experimental: Groups of 6 mice receive CRL 41 153 0.5 hour before the subcutaneous injection of 1 or 16 mg/kg of apomorphine.

rats [8] = assay: Interaction with amphetamine; assay type: in vivo, rat; conditions: i.p.
Experimental: Amphetamine (2 mg/kg) is injected intraperitoneally into groups of 6 rats 30 minutes after the administration of CRL 41 153. […] 4 mg/kg and 16 mg/kg, CRL 41 153 potentiates the intensity and duration of the stereotypies induced by amphetamine.

[9] = Acute toxicity by intraperitoneal administration; assay type: in vivo, mouse; conditions: mouse, in vivo, ip; male mice
Experimental: as §1

mice [10] = assay: Behavioral despair; assay type: in vivo, mouse; conditions: forcibly immersed mice, i.p.
Excerpt: Half an hour after they have received CRL 41 153, groups of 6 mice are placed in a beaker filled with water to a height of 6 cm. The total period of immobility between the 2nd and 6th minutes following immersion is noted.

rats [11] = assay: Overall behavior and reactivities in rats; assay type: in vivo, rat; conditions: dose not stated
Experimental: as §1, §2

humans = assay: Clinical study: vasodilator; assay type: in vivo, human
Excerpt: In the treatment of diseases associated with the blood circulation through the vessels.

mice [12] = assay: Spontaneous motility; assay type: in vivo, mouse; conditions: i.p.
Experimental: 0.5 hour after they have received CRL 41 153, the mice (6 per dose, 12 control animals) are placed in an actimeter, where their motility is recorded for 30 minutes.

dogs = assay: Cardiovascular study in anesthetized dogs; assay type: in vivo, dog
Summary of the method: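 Measurements: blood pressure, heart rate, femoral and vertebral arterial flow, rectal temperature, skin colour, and for CRL 41 194 bile colour via bile-duct catheter. Doses rose stepwise 0.1–10 mg/kg intraduodenally in solution under nembutal anaesthesia; two dogs got CRL 41 194, four CRL 41 221.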

mice [13] = assay: Interaction with oxotremorine; assay type: in vivo, mouse; conditions: i.p.
Experimental: CRL 41 153 is administered to groups of 6 mice 0.5 hour before the intraperitoneal injection of 0.5 mg/kg of oxotremorine.

[14] = system: gravid White New Zealand female rabbits; assay: Teratogenicity in gravid White New Zealand rabbits; assay type: in vivo, rabbit; conditions: day 5 to day 18 of gestation; for Affected foetuses, %: normal limit 1.5%
Summary of the method: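 Fetuses harvested by cesarean on gestation day 29 were scored for number and for any malformation (limb blockade, anury, tail or skull defects, exencephaly).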

mice [15] = assay: Interaction with barbital; assay type: in vivo, mouse; conditions: i.p., barbital 220 mg/kg
Experimental: Half an hour after the administration of CRL 41 153, groups of 10 mice receive an intraperitoneal injection of barbital (220 mg/kg).

[16] = anesthetized dogs, intraduodenal

In the case of `CC(C(=O)c1ccc(N)cc1)N1CCCC1` (stereo not drawn) [CRL 41 222, 1-(4-aminophenyl)-2-pyrrolidinopropanone dihydrochloride], the “Motor recovery of mice after hypobaric hypoxia” value (mice [1]) is reported as “improvement in the motor recovery”, the “Antidepressant effects (overall)” value (CNS; conclusion of the tests) is reported as “possessing antidepressant, stimulant and arousing properties” and the “Stimulant effects (overall)” value (CNS; conclusion of the tests) is reported as “possessing antidepressant, stimulant and arousing properties”. For the same molecule, the “α-adrenergic stimulant effects (overall)” value (CNS; conclusion of the tests) was “peripheral α-adrenergic stimulant effects”, the “Peripheral α-adrenergic signs (mydriasis, salivation, lacrimation, exophthalmos)” value (CNS; species and dose not stated, dihydrochloride) was “mydriasis; also recorded: salivation and lacrimation” and the pH ([2]; 0.1 g/liter in distilled water) was 5. It also gave a pH ([2]; 0.2 g/liter in distilled water) of 4.5, a pH ([2]; 0.4 g/liter in distilled water) of 4.0 and a pH ([2]; 0.8 g/liter in distilled water) of 3.5. It also gave a pH ([2]; 1.6 g/liter in distilled water) of 3.0, a pH ([2]; 3.2 g/liter in distilled water) of 2.5 and a pH ([2]; 6.4 g/liter in distilled water) of 2.0. The pH ([2]; 12.8 g/liter in distilled water) was 1.5, the pH ([2]; ≤0.05 g/liter in distilled water) was 5.5 and the “Overall behavior: observed effects (summary)” value (mice [3]) was “excitation in mice and rats”. For the same molecule, the “Stereotype movements (summary)” value (mice [3]) was “presence of stereotype movements”, the “Motor activity of mice accustomed to their enclosure” value (mice [4]) was “resumption in the motor activity of mice accustomed to their enclosure” and the “Effect on hypothermia induced by reserpine” value (mice [5]) was “antagonism of the hypothermia”. The “Effect on ptosis induced by reserpine” value (mice [5]) was “antagonism of the ptosis induced by reserpine”, the “Effect on stereotypies induced by apomorphine” value (rats [6]) was “potentiation of the stereotypies” and the “Effect on hypothermia induced by apomorphine” value (mice [7]) was “antagonism of the hypothermia”. The “Effect on stereotypies induced by amphetamine” value (rats [8]) was “potentiation of the stereotypies”, the LD50 [9] was 87 mg/kg and the “Period of immobility due to despair” value (mice [10]) was “a reduction in the period of immobility”. The “Overall behavior: observed effects (summary)” value (rats [11]) was “excitation in mice and rats”, the “Stereotype movements (summary)” value (rats [11]) was “presence of stereotype movements” and the “Vasodilator in human clinical use” value (humans) was “good peripheral vasodilator at a daily dose of 2×10 mg”. For the same molecule, the Spontaneous motor activity (mice [12]) was “an increase in the motor activity”, the “Vasodilator (conclusion)” value (dogs) was “vasodiating properties” and the “Effect of propanolol or atenolol on the action of the product” value (dogs; anesthetized dogs) was “acts by stimulating the β-cardiac and vascular receptors”. The “Effect on hypertension induced by norepinephrine” value (dogs; anesthetized dogs) was “moderately increases the hypertension induced by norepinephrine”, the “Effects of isoprenaline (not further specified)” value (dogs; anesthetized dogs) was “without modifying the effects of isoprenaline” and the Rectal temperature (dogs; anesthetized dogs) was “The rectal temperature and skin temperature rise”. The Skin temperature (dogs; anesthetized dogs) was “The rectal temperature and skin temperature rise”, the Blood pressure (dogs; [16]) was “A hypotensive action appears at 20 mg/kg as a drop in the diastolic blood pressure” and the Femoral flow (dogs; [16]) was “substantial and regular increase in the femoral and vertebral flows”. The Heart rate (dogs; [16]) was “accompanied by tachycardia”, the Respiration (dogs; [16]) was “Respiratory stimulation is observed in all the animals” and the Vertebral flow (dogs; [16]) was “substantial and regular increase in the femoral and vertebral flows”. For the same molecule, the “Effect on hypothermic action of oxotremorine” value (mice [13]) was “antagonism of the hypothermia”, the “Effect on trembling induced by oxotremorine” value (mice [13]) was “antagonism of the trembling induced by oxotremorine” and the “Affected foetuses, number” value ([14]; 5 mg/kg daily) was 1. The “Total foetuses (live)” value ([14]; 5 mg/kg daily) was 85, the “Affected foetuses, %” value ([14]; 5 mg/kg daily) was 1.29% and the “Affected foetuses, number” value ([14]; 10 mg/kg daily) was 0. The “Total foetuses (live)” value ([14]; 10 mg/kg daily) was 92, the “Affected foetuses, %” value ([14]; 10 mg/kg daily) was 0% and the “Duration of the sleep induced by barbital” value (mice [15]) was “distinct antagonism of the sleep induced by barbital”.
